Activity data for five compounds are collected here from ChEMBL document CHEMBL1138719, “Tocopherol long chain fatty alcohols decrease the production of TNF-alpha and NO radicals by activated microglial cells” (Bioorg Med Chem Lett, 2004).

Molecules are shown by their SMILES. Active and inactive are the calls of the source. No cut-off for these calls is given here.

Format in all cases: functional, cell-based
For assay [1], the system named is MMGT12. Kind of assay: inhibition of LPS-induced TNF-alpha production in mouse MMGT12 cells at 1e-6 M; Major inhibition.
Assay [2] has as its system MMGT12. Put plainly: inhibition of LPS-induced TNF-alpha production in mouse MMGT12 cells at 1e-5 M; Major inhibition.
In assay [3] the test system is MMGT12. Kind of assay: inhibition of LPS-induced nitrite accumulation in mouse MMGT12 cells at 1e-5 M concentration; Strong inhibition inhibition.
Assay [4] has as its system MMGT12. Put plainly: inhibition of LPS-induced TNF-alpha production in mouse MMGT12 cells at 1e-5 M to 1e-7 M concentration; No effect.
Assay [5] concerns MMGT12. Put plainly: inhibition of LPS-induced TNF-alpha production in mouse MMGT12 cells at 1e-5 M concentration; Slight inhibition.
The test system of assay [6] is MMGT12. Put plainly: inhibition of LPS-induced nitrite accumulation in mouse MMGT12 cells at 1e-6 M concentration; Slight inhibition.

Consider `Cc1c(C)c2c(c(C)c1O)CCC(C)(CCCCCCCCCCCCCCO)O2` (stereo unspecified), for which the Activity result in the assay on MMGT12 [1], with MMGT12 [2] and in the assay on MMGT12 [3] was “Major inhibition” throughout.
In the case of `Cc1c(C)c2c(c(C)c1O)CCC(C)(CCC[C@H](C)CCCC(C)CCCC(C)C)O2` (single isomer, unassigned), in the assay on MMGT12 [4], the result was inactive.
On the same count and under the same terms, as for `Cc1c(C)c2c(c(C)c1O)CCC(C)(CCCCCCCCCCO)O2` (stereo unspecified), the entry is “inactive”.
For `Cc1c(C)c2c(c(C)c1O)CCC(C)(CCCCCCCCCCCCO)O2` (stereo unspecified), the Activity entry with MMGT12 [1], in the assay on MMGT12 [2] and in the assay with MMGT12 [3] was “Major inhibition” in each case.
As to `Cc1c(C)c2c(c(C)c1O)CCC(C)(CCCCCCCCCCCCCCCCO)O2` (stereo unspecified), the Activity result in the assay on MMGT12 [5], in the assay on MMGT12 [6] and in the assay on MMGT12 [3] was “Slight inhibition” each time.
